{
  "source": "patent US10203334B2",
  "about": "“Methods and compositions related to nucleic acid binding assays” (Nubad, LLC, priority 2012, dated 2019)",
  "key": {"d(CCCCGGGG)2 [1]": {"tested_on": "d(CCCCGGGG)2", "experiment": "Fluorescein-neomycin fluorescence quenching by DNA duplex", "assay_type": "binding", "details": "1 μM probe, 10 mM SC, 0.5 mM EDTA, pH 6.8", "protocol": "(§1) It has been shown that the fluorescence of a fluorescein-neomycin is quenched when bound to a nucleic acid target. In continued efforts to expand the applications of the fluorescein-neomycin conjugate, a fluorescence quenching study was performed to determine if the quenching of fluorescein-neomycin in the presence of DNA is representative of the neomycin affinity. Previous studies using the duplexes d(GGGGCCCC)2 and d(CCCCGGGG)2 have shown the binding is lower for d(CCCCGGGG)2. This has been shown from the ITC derived binding constants, FID studies, and electrostatic potential studies. […] For this reason the fluorescence quenching of fluorescein-neomycin with d(GGGGCCCC)2 and d(CCCCGGGG)2 was performed at three different buffer salt concentrations. […] Results from this study show here that the fluorescein-neomycin quenching can be applied to screening the 256 GC rich hairpins to identify which sequence neomycin has the highest affinity. Table 2 represents the change in fluorescence (%) values of fluorescein-neomycin with 1rdr d(GGGGCCCC)2 and d(CCCCGGGG)2 in 3 different buffer salt concentrations and the ratio between the change in fluorescence (%) values of F-neo with d(CCCCGGGG)2 compared to d(GGGGCCCC)2. Fluorescein-neomycin=1 μM, Buffer=10 mM SC, 0.5 mM EDTA, and either 50 mM NaCl, 100 mM NaCl, or 150 mM NaCl (pH=6.8). Experiment was performed in triplicate and the results were also polted in FIG. 10 showing the change in fluorescence (%) of fluorescein-neomycin with 1 equivalent d(GGGGCCCC)2 and d(CCCCGGGG)2 in 3 different buffer salt concentrations."}, "d(GGGGCCCC)2 [2]": {"tested_on": "d(GGGGCCCC)2", "experiment": "Fluorescein-neomycin fluorescence quenching by DNA duplex", "assay_type": "binding", "details": "1 μM probe, 10 mM SC, 0.5 mM EDTA, pH 6.8", "protocol": "as §1"}, "d(CCCCGGGG)2 [3]": {"tested_on": "d(CCCCGGGG)2", "assay_type": "physicochemical", "excerpt": "(§2) The local electrostatic potential (Ψ) in the major groove is given by the following Equation 3. Ψ=−[R·T·ln 10/(NA·e)]ΔpKa Eq. (3) Where ΔpKa is the difference between the free Fluorescein-neomycin and the Fluorescein-neomycin in the presence of the electrostatic environment, R is the universal gas constant, T is the absolute temperature in kelvin, NA is the Avogadro constant, and e is the elementary charge. R=8.312 J mol−1K−1, T=298.2K, NA=6.023×10^23 and e=1.602×10^−19; Ψ is expressed in mV. Thus a shift of +1 in the value of the pKa implies an electrostatic potential of […]. […] Based on this Δpka of 0.86, the electrostatic potential of the microenvironment for the fluorescein moiety in the complex is determined to be −50.9 mV.\n(§3) Determination of the pKa was done using chemometric analysis of the absorption profiles at various pH values of the covalently attached fluorescein moiety (Kubista, M., et al., (1993) Anal. Chem. 65, 994-998, Kubista, M., et al., (1995) Anal. Chim. Acta. 302, 121-125.2, 3). The pH dependent absorption profile of free fluorescein-neomycin was first analyzed to determine its pKa. […] The electrostatic potential (P) calculated from the shift in pKa, and the ITC derived binding constant (K). Electrostatic potential experiments performed in 100 mM NaCl, 10 mM SC, 0.5 mM EDTA at 25° C. ITC experiments performed in 50 mM KCl, 10 mM SC, 0.5 mM EDTA (pH 6.0) at 25° C. […] Fluorescein-neomycin concentration was 10 μM. Table 1 represents the pKa values determined from the inflection point of the pH dependent absorbance scans of free fluorescein-neomycin, fluorescein-neomycin with one molar equivalent d(CCCCGGGG)2 and d(GGGGCCCC)2. The electrostatic potential (Y) calculated from the shift in pKa, and the ITC derived binding constant (K)."}, "d(GGGGCCCC)2 [4]": {"tested_on": "d(GGGGCCCC)2", "assay_type": "physicochemical", "excerpt": "as §2, §3"}, "[5]": {"tested_on": "E. coli rRNA A-site oligonucleotide (SEQ ID NO. 1)", "experiment": "Fluorescence titration of F-neo with bacterial rRNA A-site oligonucleotide and titration of the complex with neomycin", "assay_type": "binding", "details": "1:1 stoichiometric ratio of conjugate and A-site oligonucleotide; pH 7.0", "excerpt": "This compound F-neo or 42a is a fluorescein conjugate coupled through the 5″ OH position of the ribose ring of neomycin B (H. Xi, E. Davis, N. Ranjan, L. Xue, D. Hyde-Volpe, D. P. Arya, Thermodynamics of nucleic Acid “shape readout” by an aminosugar, Biochemistry. 50 (2011) 9088-9113). E. coli rRNA Asite oligonucleotide (SEQ ID NO. 1, […]) is a synthetic RNA sequence 27 bases long designed to mimic the ribosomal A-site. The A-site oligonucleotide (SEQ ID NO. 1) is titrated into F-neo (42a) to give a concentration dependent loss of fluorescence of F-neo (42a). […]\nThe effect of bacterial A-site oligonucleotide (SEQ ID No. 1) on the fluorescence emission intensity of a fluorescein-neomycin conjugate (F-neo or 42a) is recorded in FIG. 2. […]\nThe F-neo (42a) can be competitively displaced from the A-site RNA oligonucleotide (SEQ ID No. 1) by the addition of non-fluorescent RNA binding drugs. Titrating neomycin into the F-neo (42a):A-site complex increases the fluorescence in a dose dependent manner that saturates at a 1:1 stoichiometric ratio of drug-to-complex. Additionally, a strong signal window, measured as an increase in fluorescence is present at a 3:1 molar ratio, and a maximum change in fluorescence at approximately 10:1 molar ratio. […] Fluorescence emission intensity (517 nm) of 0.3 mM A-site oligonucletide/F-neo complex solution increased with increasing concentration of neomycin. […]"}, "[6]": {"details": "50 mM NaCl, listed as Fluorescein-neomycin"}, "[7]": {"details": "50 mM NaCl, listed as fluorescein-neomycin"}, "[8]": {"details": "150 mM NaCl, listed as Fluorescein-neomycin"}, "[9]": {"details": "150 mM NaCl, listed as fluorescein-neomycin"}, "[10]": {"details": "electrostatic potential calculated from the shift in pKa"}, "[11]": {"details": "versus free fluorescein-neomycin"}},
  "data": [
    {"smiles": "NCC1O[C@H](OC2C(O)C(OC3C(O)[C@H](N)CC(N)[C@H]3O[C@H]3OC(CN)[C@@H](O)C(O)C3N)O[C@@H]2CSCCNC(=O)CCSCC(=O)Nc2ccc(-c3c4ccc(=O)cc-4oc4cc(O)ccc34)c(C(=O)O)c2)C(N)C(O)[C@@H]1O", "note": "(some centres unmarked) [F-neo (42a), Neomycin-Fluorescein Conjugate]", "values": [
      {"measurement": "ΔF (%) with 1rdr d(CCCCGGGG)2", "setting": "d(CCCCGGGG)2 [1]; [6]", "value": "47.75 ± 5.60", "unit": "%"},
      {"measurement": "ΔF (%) with 1rdr d(CCCCGGGG)2", "setting": "d(CCCCGGGG)2 [1]; [7]", "value": 47, "unit": "%"},
      {"measurement": "ΔF (%) with 1rdr d(CCCCGGGG)2", "setting": "d(CCCCGGGG)2 [1]; 100 mM NaCl", "value": "32.18 ± 0.42", "unit": "%"},
      {"measurement": "ΔF (%) with 1rdr d(CCCCGGGG)2", "setting": "d(CCCCGGGG)2 [1]; [8]", "value": "20.36 ± 2.76", "unit": "%"},
      {"measurement": "ΔF (%) with 1rdr d(CCCCGGGG)2", "setting": "d(CCCCGGGG)2 [1]; [9]", "value": 20, "unit": "%"},
      {"measurement": "ΔF (%) with 1rdr d(GGGGCCCC)2", "setting": "d(GGGGCCCC)2 [2]; [6]", "value": "73.97 ± 5.78", "unit": "%"},
      {"measurement": "ΔF (%) with 1rdr d(GGGGCCCC)2", "setting": "d(GGGGCCCC)2 [2]; [7]", "value": 73, "unit": "%"},
      {"measurement": "ΔF (%) with 1rdr d(GGGGCCCC)2", "setting": "d(GGGGCCCC)2 [2]; 100 mM NaCl", "value": "49.28 ± 1.12", "unit": "%"},
      {"measurement": "ΔF (%) with 1rdr d(GGGGCCCC)2", "setting": "d(GGGGCCCC)2 [2]; [8]", "value": "33.88 ± 3.33", "unit": "%"},
      {"measurement": "ΔF (%) with 1rdr d(GGGGCCCC)2", "setting": "d(GGGGCCCC)2 [2]; [9]", "value": 33, "unit": "%"},
      {"measurement": "Ψ (mV)", "setting": "d(CCCCGGGG)2 [3]; [10]", "value": "−15.13", "unit": "mV"},
      {"measurement": "pKa", "setting": "d(CCCCGGGG)2 [3]; one molar equivalent d(CCCCGGGG)2, 100 mM NaCl, 10 mM SC, 0.5 mM EDTA at 25° C.", "value": 6.83},
      {"measurement": "ΔpKa", "setting": "d(CCCCGGGG)2 [3]; [11]", "value": 0.26},
      {"measurement": "Ψ (mV)", "setting": "d(GGGGCCCC)2 [4]; [10]", "value": "−25.61", "unit": "mV"},
      {"measurement": "pKa", "setting": "d(GGGGCCCC)2 [4]; one molar equivalent d(GGGGCCCC)2, 100 mM NaCl, 10 mM SC, 0.5 mM EDTA at 25° C.", "value": 7.01},
      {"measurement": "ΔpKa", "setting": "d(GGGGCCCC)2 [4]; [11]", "value": 0.44},
      {"measurement": "reduction in fluorescence emission intensity", "setting": "[5]", "value": 3, "unit": "fold"}
    ]}
  ]
}
